# Tests used:
# Type in all cases: functional
# [1] = molecular target: T1, Mitogen-activated protein kinase (Plasmodium falciparum, UniProt Q25917); test: Final concentrations were 1 uM ATP, 0.5 mM DTT, 1 mM MgCl2, 0.5 mg/mL BSA, and 10 ug/ml MAP2 in a buffer of 50 mM HEPES (pH 7.0). 0.5 mg/mL histone III-S served as the substrate (13); 100 uM AMP-PNP, an ATP analog, was used as a control inhibitor. Incubation time was 4 hours.
# T1 sequence (Q25917 whole entry): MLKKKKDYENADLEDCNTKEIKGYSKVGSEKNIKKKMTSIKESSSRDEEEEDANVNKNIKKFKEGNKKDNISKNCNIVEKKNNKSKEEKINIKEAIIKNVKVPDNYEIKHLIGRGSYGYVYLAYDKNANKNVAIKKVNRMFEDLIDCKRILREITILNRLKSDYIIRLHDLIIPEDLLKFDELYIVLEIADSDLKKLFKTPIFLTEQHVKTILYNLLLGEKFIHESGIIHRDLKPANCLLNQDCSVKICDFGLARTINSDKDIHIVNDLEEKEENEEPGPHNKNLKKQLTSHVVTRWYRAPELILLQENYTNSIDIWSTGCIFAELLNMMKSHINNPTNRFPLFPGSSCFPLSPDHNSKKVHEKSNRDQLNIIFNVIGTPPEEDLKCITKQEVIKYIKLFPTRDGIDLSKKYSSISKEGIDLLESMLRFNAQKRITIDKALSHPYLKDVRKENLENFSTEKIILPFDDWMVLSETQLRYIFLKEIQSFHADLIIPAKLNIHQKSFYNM
# [2] = molecular target: Lysine--tRNA ligase (Plasmodium falciparum (isolate 3D7), UniProt Q8IDJ8); test: MMV: KRS recombinant Plasmodium falciparum Lysyl-tRNA-synthetase, assay with yeast tRNA, ATP, and lysine and 3 uM MMV malaria box compound, assay read out with kinase glo as % inhibition.
# [3] = molecular target: T2, Proline--tRNA ligase (Plasmodium falciparum (isolate 3D7), UniProt Q8I5R7); test: MMV: ProRS recombinant Plasmodium falciparum Prolyl-tRNA-synthetase, assay with yeast tRNA, ATP, and proline and 3 uM MMV malaria box compound, assay read out with kinase glo as % inhibition.
# T2 sequence (Q8I5R7 whole entry): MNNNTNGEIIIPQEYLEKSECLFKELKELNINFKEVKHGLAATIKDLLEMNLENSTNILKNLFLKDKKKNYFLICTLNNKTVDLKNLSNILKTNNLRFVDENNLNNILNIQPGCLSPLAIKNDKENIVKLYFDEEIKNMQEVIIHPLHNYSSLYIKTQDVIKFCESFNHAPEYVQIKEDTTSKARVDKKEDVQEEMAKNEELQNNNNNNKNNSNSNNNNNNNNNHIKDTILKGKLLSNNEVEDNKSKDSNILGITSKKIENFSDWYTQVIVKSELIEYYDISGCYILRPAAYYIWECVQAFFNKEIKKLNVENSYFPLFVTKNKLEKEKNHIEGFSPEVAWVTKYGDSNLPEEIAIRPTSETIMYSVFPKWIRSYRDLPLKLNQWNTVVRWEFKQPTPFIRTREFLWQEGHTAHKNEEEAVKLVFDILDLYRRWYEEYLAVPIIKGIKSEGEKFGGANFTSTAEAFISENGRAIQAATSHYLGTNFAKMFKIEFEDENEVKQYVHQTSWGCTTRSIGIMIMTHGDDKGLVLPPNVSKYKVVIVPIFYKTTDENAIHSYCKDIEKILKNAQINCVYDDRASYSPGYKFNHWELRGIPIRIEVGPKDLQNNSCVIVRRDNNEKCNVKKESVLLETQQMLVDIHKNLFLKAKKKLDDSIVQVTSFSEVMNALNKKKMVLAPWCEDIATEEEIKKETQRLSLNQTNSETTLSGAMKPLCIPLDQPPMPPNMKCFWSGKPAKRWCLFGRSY
# [4] = molecular target: Calcium-dependent protein kinase 1 (Plasmodium falciparum, UniProt P62344); test: MMV: CDPK1 Protein kinase inhibition assay using recombinant PfCDPK1, syntide 2 peptide substrate, ATP and KinaseGlo to measure % inhibition at 1 uM MMV box compound.
# [5] = molecular target: T3, Cdk-related protein kinase 6 (Plasmodium falciparum, UniProt O77239); test: Final concentrations were 1.5 uM ATP, 5 mM MnCl2, and 15 ug/ml PK6 in a buffer of 100 mM Tris-HCl (pH 7.5). 50 ug/mL MBP was provided as the substrate; 10 uM staurosporine was used as a control inhibitor. Incubation time was 3 hours and 40 minutes.The catalytic activity of each kinase was considered proportional to ATP consumed, as determined from measurements of residual [ATP] with the luciferase-based reagent Kinase-Glo (Promega) following incubation. Luminescence (proportional to residual [ATP]) was measured on the plate readers FLx800 (BioTek Instruments, Winooski, VT, USA) and MicroBeta2.
# T3 sequence (O77239 whole entry): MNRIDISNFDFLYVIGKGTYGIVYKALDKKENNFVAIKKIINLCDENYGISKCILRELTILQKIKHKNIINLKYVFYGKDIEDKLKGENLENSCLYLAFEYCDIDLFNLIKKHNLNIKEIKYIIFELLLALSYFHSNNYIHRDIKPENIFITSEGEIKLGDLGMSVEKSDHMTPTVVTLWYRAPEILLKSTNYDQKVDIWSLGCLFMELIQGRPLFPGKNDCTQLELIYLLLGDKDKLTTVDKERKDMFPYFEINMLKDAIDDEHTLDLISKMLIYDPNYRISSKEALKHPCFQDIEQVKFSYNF
# [6] = molecular target: T4, Calcium-dependent protein kinase 4 (Plasmodium falciparum (isolate 3D7), UniProt Q8IBS5); test: MMV: CDPK4 Protein kinase inhibition assay using recombinant PfCDPK4, syntide2 peptide substrate, ATP and KinaseGlo to measure % inhibition at 1 uM MMV box compound.
# T4 sequence (Q8IBS5 whole entry): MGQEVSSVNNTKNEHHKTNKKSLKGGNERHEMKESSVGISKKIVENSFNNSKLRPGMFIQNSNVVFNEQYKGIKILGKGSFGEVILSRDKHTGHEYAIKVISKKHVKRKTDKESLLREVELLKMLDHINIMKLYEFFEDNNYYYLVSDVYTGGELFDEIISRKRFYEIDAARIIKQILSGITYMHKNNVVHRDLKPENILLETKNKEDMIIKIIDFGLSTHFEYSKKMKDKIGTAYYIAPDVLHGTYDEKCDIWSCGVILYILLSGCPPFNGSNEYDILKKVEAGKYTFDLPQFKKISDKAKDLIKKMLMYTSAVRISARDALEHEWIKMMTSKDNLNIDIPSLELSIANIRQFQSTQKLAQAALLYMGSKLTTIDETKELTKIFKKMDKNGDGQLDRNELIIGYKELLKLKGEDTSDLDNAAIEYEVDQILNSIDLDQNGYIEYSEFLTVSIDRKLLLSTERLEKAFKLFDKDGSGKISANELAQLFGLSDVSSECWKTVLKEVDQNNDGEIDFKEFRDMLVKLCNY
# [7] = molecular target: T5, Putative uncharacterized protein pk7 (Plasmodium falciparum, UniProt O96214); test: Final concentrations were 1 uM ATP, 2 mM DTT, 20 mM MgCl2, 2 mM MnCl2, 0.01% BSA, and 6 ug/ml PK7, in a buffer of 20 mM Tris-HCl (pH 7.5). The enzyme itself was the only substrate present (since autophosphorylation occurs); 100 uM 1NA-PP1 was used as a control inhibitor. Incubation time was 3 hours.
# T5 sequence (O96214 whole entry): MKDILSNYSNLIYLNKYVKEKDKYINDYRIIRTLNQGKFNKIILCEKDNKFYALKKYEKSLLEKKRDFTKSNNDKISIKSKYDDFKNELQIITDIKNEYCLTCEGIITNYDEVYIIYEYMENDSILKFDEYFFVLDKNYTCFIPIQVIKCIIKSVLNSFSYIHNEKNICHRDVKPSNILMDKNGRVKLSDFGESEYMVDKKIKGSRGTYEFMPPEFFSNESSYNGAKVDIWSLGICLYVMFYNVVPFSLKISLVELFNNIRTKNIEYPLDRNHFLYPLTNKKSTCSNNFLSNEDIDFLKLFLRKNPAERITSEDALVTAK
# Sequence of Calcium-dependent protein kinase 1 (P62344 whole entry): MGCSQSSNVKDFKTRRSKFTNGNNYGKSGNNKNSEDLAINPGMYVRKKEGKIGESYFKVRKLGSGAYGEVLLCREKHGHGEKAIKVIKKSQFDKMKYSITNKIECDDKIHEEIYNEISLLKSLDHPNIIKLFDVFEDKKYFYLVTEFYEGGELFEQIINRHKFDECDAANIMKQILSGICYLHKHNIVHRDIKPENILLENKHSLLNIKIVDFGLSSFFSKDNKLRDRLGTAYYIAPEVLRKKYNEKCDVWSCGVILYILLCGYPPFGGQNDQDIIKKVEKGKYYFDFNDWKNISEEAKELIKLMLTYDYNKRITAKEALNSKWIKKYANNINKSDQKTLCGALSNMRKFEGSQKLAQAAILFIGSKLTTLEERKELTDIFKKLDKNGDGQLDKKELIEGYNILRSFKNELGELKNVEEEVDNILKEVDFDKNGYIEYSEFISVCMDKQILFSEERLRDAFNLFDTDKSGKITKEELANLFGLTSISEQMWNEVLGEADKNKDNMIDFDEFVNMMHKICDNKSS
# Sequence of Lysine--tRNA ligase (Q8IDJ8 whole entry): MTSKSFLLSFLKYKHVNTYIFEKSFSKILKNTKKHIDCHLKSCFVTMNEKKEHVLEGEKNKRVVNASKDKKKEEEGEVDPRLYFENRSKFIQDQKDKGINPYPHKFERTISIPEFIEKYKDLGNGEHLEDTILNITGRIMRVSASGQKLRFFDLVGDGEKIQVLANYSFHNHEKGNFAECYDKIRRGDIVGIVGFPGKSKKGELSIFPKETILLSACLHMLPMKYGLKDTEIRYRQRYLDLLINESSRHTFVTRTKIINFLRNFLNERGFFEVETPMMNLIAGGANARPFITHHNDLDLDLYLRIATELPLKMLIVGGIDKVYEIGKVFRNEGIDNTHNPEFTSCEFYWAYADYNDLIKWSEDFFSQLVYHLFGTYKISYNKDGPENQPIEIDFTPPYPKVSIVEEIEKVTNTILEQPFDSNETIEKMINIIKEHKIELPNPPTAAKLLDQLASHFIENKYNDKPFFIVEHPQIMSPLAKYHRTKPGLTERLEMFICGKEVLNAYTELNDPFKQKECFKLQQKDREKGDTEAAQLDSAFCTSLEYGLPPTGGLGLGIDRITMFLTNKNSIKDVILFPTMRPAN
Structure (SMILES),IC50 [1] [nM],IC50 [2] [nM],IC50 [3] [nM],IC50 [4] [nM],IC50 [5] [nM],IC50 [6] [nM],IC50 [7] [nM]
COc1ccc(CNC2CCN(c3ccc(NC(=O)c4cccc(Cl)c4)cc3)CC2)cc1OC,> 1000,> 2500,> 2500,> 1000,> 1000,> 1000,> 1000
CCCCNCC(O)(c1ccc(Cl)cc1)c1ccc(Cl)cc1,> 1000,> 2500,> 2500,> 1000,> 1000,> 1000,> 1000
CC(C)(C)C(=O)Nc1ccc(C(=O)Nc2cccc(-c3nc4ccccc4[nH]3)c2)cc1,> 1000,> 2500,> 2500,> 1000,> 1000,> 1000,> 1000
Cc1ccc(Cl)cc1N1CCN(CCCNC(=O)C2CCN(c3nc4ccccc4[nH]3)CC2)CC1,> 1000,> 2500,> 2500,> 1000,> 1000,> 1000,> 1000
CN(C)c1ccc(C(O)(c2ccc(N(C)C)cc2)c2ccc(N(C)C)cc2)cc1 [METHYLROSANILINE],> 1000,> 2500,> 2500,> 1000,> 1000,> 1000,> 1000
COc1ccc(CCNC(=O)c2cc(S(=O)(=O)N3CC(C)CC(C)C3)ccc2Sc2ccc(F)cc2)cc1OC (stereo not drawn),> 1000,> 2500,> 2500,> 1000,> 1000,> 1000,> 1000
CC1=C(CC(=O)c2cccc([N+](=O)[O-])c2)C(=O)c2ccccc2C1=O,> 1000,> 2500,> 2500,> 1000,> 1000,> 1000,> 1000
CCCCCn1c(=N)n(CC(O)COc2cccc(C)c2)c2ccccc21 (stereo not drawn),> 1000,> 2500,> 2500,> 1000,> 1000,> 1000,> 1000
COc1ccc(C(=O)NC(c2ccc(Cl)cc2Cl)c2cc(Cl)c3cccnc3c2O)cc1 (stereo not drawn),> 1000,> 2500,> 2500,> 1000,> 1000,> 1000,> 1000
CCOc1c(Br)cc(C2C(C(=O)OC)=CN(C)C=C2C(=O)OC)cc1OC,> 1000,> 2500,> 2500,> 1000,> 1000,> 1000,> 1000
COc1ccc(CN2CCCC(C(=O)c3ccc(C(F)(F)F)cc3)C2)c(O)c1 (stereo not drawn),> 1000,> 2500,> 2500,> 1000,> 1000,> 1000,> 1000
Cc1cc(C)c2nc(N3CCC(C(=O)NCCCN4CCC(N5CCCCC5)CC4)CC3)sc2c1,> 1000,> 2500,> 2500,> 1000,> 1000,> 1000,> 1000
CC(C)=CCN1CCC(C(=O)Nc2ccc(-c3nc4ccccc4[nH]3)cc2)CC1,> 1000,> 2500,> 2500,> 1000,> 1000,> 1000,> 1000
COc1ccc(Nc2nc(N/N=C/c3ccc(O)cc3)nc(Nc3ccc([N+](=O)[O-])cc3)n2)cc1,> 1000,> 2500,> 2500,> 1000,> 1000,> 1000,> 1000

# From ChEMBL document CHEMBL3301562, “MMV Box screening against Plasmodium falciparum protein kinases and aminoacyl tRNA synthetases”
